Where only a bound is given, the exact number is not on record here.

The assay has as its system A375 cells. Briefly: A375 cell immunofluorescence assay (with 1 μM S1152 and 0.5 μM S1008), EC50. The assay is classed as cell-based. The note with it: 1 μM S1152 + 0.5 μM S1008, one day, ratio FL2/FL3 staining (sc-365823 antibody). An outline of the steps:
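A375 cells were treated for 1 day with 1 μM S1152, 0.5 μM S1008 and compound dose ranges in DMEM/10% FCS/2 mM glutamine, then fixed, permeabilized and immunostained (secondary antibody 2 μg/ml). FL2 (500-530 nm) signal was measured in propidium iodide-defined objects (FL3, 565-600 nm). The normalized ln FL2/ln FL3 ratio was log-transformed, and EC50 came from a 4-parameter fit.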
Broadly, the EC50 is the midpoint of the concentration-response curve. Turning to `CCC(=O)N1CCCC(c2nc(Nc3cccc(F)c3)cc(-c3ccc4scnc4c3)n2)C1` (stereo not drawn), the half-maximal effective concentration (EC50) was 1 to 10 µM.
In the case of `CC(=O)N1CCCC(c2nc(Nc3ccncc3)cc(Nc3cccc(F)c3)n2)C1` (stereo not drawn), the EC50 is more than 10 µM.
As for `O=C1CCC2C(c3nc(Nc4cccc(F)c4)cc(-c4cccnc4)n3)CCCN12` (stereo not drawn), the EC50 lay within 1 to 10 µM.
For the molecule `COc1cccc(Nc2cc(-c3cncc(OC)c3)nc(C3CCCN(C(C)=O)C3)n2)c1` (stereo not drawn), the EC50 lay in the range of 1 to 10 µM.
Next, `CC(=O)N1CCCC(c2nc(Nc3cccc(F)c3)cc(-c3cncc4[nH]ccc34)n2)C1` (stereo not drawn) [drawing 556]: less than 1 µM; `CCC(=O)N1CCCC(c2nc(Nc3cccc(F)c3)cc(-c3c(C)noc3C)n2)C1` (stereo not drawn): 1 to 10 µM; `CN1CC(c2nc(Nc3cccc(F)c3)cc(-c3cccnc3)n2)CCC1=O` (stereo not drawn): more than 10 µM.
As for `CS(=O)(=O)N1CCCC(c2nc(Nc3cccc(F)c3)cc(-c3cccnc3)n2)C1` (stereo not drawn), the figure is more than 10 µM.
Regarding `CC(=O)N1CCC(C)C(c2nc(Nc3cccc(F)c3)cc(-c3cccnc3)n2)C1` (stereo not drawn) [drawing 719], the EC50 was in the range of 1 to 10 µM.
As to `CC(=O)N1CCC[C@@H](c2nc(Nc3cccc(F)c3)cc(-c3cccnc3)n2)C1`, the EC50 is less than 1 µM.
As for `CCC(=O)N1CCCC(c2nc(Nc3cccc(F)c3)cc(-c3cncnc3)n2)C1` (stereo not drawn), the figure is 1 to 10 µM; as for `CC(=O)N1CCCC(c2nc(Nc3cccc(C)c3)cc(-c3cncc(-c4nccs4)c3)n2)C1` (stereo not drawn), less than 1 µM.
Next, `CC(C)C(=O)N1CCCC(c2nc(Nc3cccc(F)c3)cc(-c3cccnc3)n2)C1` (stereo not drawn): more than 10 µM; `CCC(=O)N1CCCC(c2nc(Nc3cccc(F)c3)cc(NC3CCC3)n2)C1` (stereo not drawn): more than 10 µM.
As for `CCC(=O)N1CCCC(c2nc(Nc3cccc(F)c3)cc(-c3cncc4ccccc34)n2)C1` (stereo not drawn), the EC50 was more than 10 µM.
In the case of `CC(=O)N1CCCC(c2nc(Nc3cccc(F)c3)cc(-c3c(C)noc3C)n2)C1` (stereo not drawn), the 50% effective concentration (EC50) lay in the range of 1 to 10 µM.
For `CCC(=O)N1CCC[C@@H](c2nc(Nc3cccc(F)c3)cc(-c3cccnc3)n2)C1`, the EC50 fell in the range of 1 to 10 µM.
`COc1cncc(-c2cc(Nc3cccc(C(F)F)c3)nc(C3CCCN(C(C)=O)C3)n2)c1` (stereo not drawn): the EC50 was in the range of 1 to 10 µM.
As to `CC(=O)N1CCCC(c2nc(Nc3cccnn3)cc(-c3cccnc3)n2)C1` (stereo not drawn), the EC50 was more than 10 µM.
`CC(=O)N1CCCC(c2nc(Nc3cccc(F)c3)cc(-c3cncc(C(=O)N4CCS(=O)(=O)CC4)c3)n2)C1` (stereo not drawn): the concentration for a half-maximal effect (EC50) was more than 10 µM.
In the case of `CC(=O)N1CCCC(c2nc(Nc3ccon3)cc(-c3cncc4[nH]ccc34)n2)C1` (stereo not drawn), the EC50 is more than 10 µM.
For the molecule `CC(=O)N1CCC[C@H](c2nc(Nc3cccc(F)c3)cc(-c3cccnc3)n2)C1`, the EC50 was more than 10 µM.
Next, `CC(=O)N1CCCC(c2nc(Nc3cccnc3)cc(-c3cccnc3)n2)C1` (stereo not drawn): 1 to 10 µM; `CC(=O)N1C[C@H](c2nc(Nc3cncc(C)c3)cc(-c3cncc(C4COC4)c3)n2)CC[C@@H]1C`: less than 1 µM; `CC(=O)N1CCCC(c2cc(Nc3cccc(F)c3)cc(-c3cncnc3)n2)C1` (stereo not drawn): 1 to 10 µM.
`C#Cc1cc(Nc2cccc(F)c2)nc(C2CCCN(C(C)=O)C2)n1` (stereo not drawn): the EC50 was more than 10 µM.
Regarding `CC(=O)N1CCCC(c2nc(Nc3ccccn3)cc(-c3cncc4[nH]ccc34)n2)C1` (stereo not drawn), the EC50 lay in the range of 1 to 10 µM.
Next, `CC(=O)N1CCCC(c2nc(NC34CC(C3)C4)cc(-c3cncnc3)n2)C1` (stereo not drawn): more than 10 µM; `CCC(=O)N1CCCC(c2nc(Nc3cccc(F)c3)cc(-c3cnn(C4CCC4)c3)n2)C1` (stereo not drawn): more than 10 µM; `CC(=O)N1CCCC(c2nc(Nc3cccc(F)c3)cc(Nc3ncccn3)n2)C1` (stereo not drawn): less than 1 µM.
Regarding `CN1CCC(c2nc(Nc3cccc(F)c3)cc(-c3cccnc3)n2)CC1=O` (stereo not drawn), the EC50 is more than 10 µM.
Consider `CC(=O)N1CC2(c3nc(Nc4cccc(F)c4)cc(-c4cccnc4)n3)CCC1CC2`, for which the EC50 was more than 10 µM.
As to `CC(=O)N1CCCC(c2nc(Nc3cccc(F)c3)cc(-c3cncc4[nH]ccc34)n2)C1` (stereo not drawn) [drawing 575], the EC50 lay within 1 to 10 µM.
As for `CCC(=O)N1CCCC(c2nc(NCc3ccccc3)cc(Nc3cccc(F)c3)n2)C1` (stereo not drawn), the EC50 is more than 10 µM.
`CCC(=O)N1CCCC(c2nc(Nc3ccccc3)cc(-c3cccnc3)n2)C1` (stereo not drawn): the EC50 fell in the range of 1 to 10 µM.
As to `COc1cncc(-c2cc(N(C)c3cccc(C)c3)nc(C3CCCN(C(C)=O)C3)n2)c1` (stereo not drawn), the EC50 was 1 to 10 µM.
For the molecule `COc1cccc(-c2cc(Nc3cccc(F)c3)nc(C3CCCN(C(C)=O)C3)n2)c1` (stereo not drawn), the EC50 is 1 to 10 µM.
In the case of `CCC(=O)N1CCCC(c2nc(Nc3cccc(F)c3)cc(Nc3cnccn3)n2)C1` (stereo not drawn), the concentration giving a half-maximal response (EC50) was more than 10 µM.
Consider `CN1CCCC(c2nc(Nc3cccc(F)c3)cc(-c3cccnc3)n2)C1` (stereo not drawn), for which the concentration for a half-maximal effect (EC50) is more than 10 µM.
For `CCC(=O)N1CCCC(c2nc(Nc3cccc(F)c3)cc(-c3cccc(O)c3)n2)C1` (stereo not drawn), the EC50 lay within 1 to 10 µM.
Regarding `CCC(=O)N1CCCC(c2nc(-c3cccnc3)cc(N3CCOCC3)n2)C1` (stereo not drawn), the EC50 was more than 10 µM.
Take `CNC(=O)c1cncc(-c2cc(Nc3cccc(F)c3)nc(C3CCCN(C(C)=O)C3)n2)c1` (stereo not drawn): the EC50 is less than 1 µM.
With `CCC(=O)N1CCCC(c2nc(Nc3ccccc3Cl)cc(-c3cccnc3)n2)C1` (stereo not drawn), the EC50 was in the range of 1 to 10 µM.
In the case of `CC(=O)N1CCCC(c2nc(Nc3cccc(F)c3)cc(-c3scc4c3OCCO4)n2)C1` (stereo not drawn), the EC50 was less than 1 µM.
For the molecule `CC(=O)N1CCCC(c2nc(Nc3cccc(F)c3)cc(NC3CCCOC3)n2)C1` (stereo not drawn), the EC50 is 1 to 10 µM.
As for `CC(=O)N1CCCC(c2nc(Nc3cccc(F)c3)cc(-c3csc4cnccc34)n2)C1` (stereo not drawn), the figure is more than 10 µM; as for `CC(=O)N1CC(c2nc(Nc3cccc(F)c3)cc(-c3cccnc3)n2)CC(F)(F)C1` (stereo not drawn), more than 10 µM; as for `CC(=O)N1CCCC(c2nc(Nc3cncnc3)cc(-c3cccnc3)n2)C1` (stereo not drawn), more than 10 µM.
As for `CC(=O)N1CC(c2cc(Nc3cccc(F)c3)cc(-c3cccnc3)n2)CCC1C` (stereo not drawn) [drawing 690], the 50% effective concentration (EC50) lay within 1 to 10 µM.
In the case of `CCC(=O)N1CCCC(c2nc(Cc3cccc(F)c3)cc(-c3cccnc3)n2)C1` (stereo not drawn), the EC50 is more than 10 µM.
As to `CC(=O)N1CCCC(c2nc(Nc3cccc(F)c3)cc(-c3cccc4[nH]ccc34)n2)C1` (stereo not drawn), the EC50 was less than 1 µM.
Regarding `CC(=O)N1CCCC(c2nc(Nc3cccc(C)c3)cc(-c3cncc(N4CCOCC4)c3)n2)C1` (stereo not drawn), the EC50 was less than 1 µM.
Next, `CC(=O)N1CC(c2nc(Nc3cccc(F)c3)cc(-c3cccnc3)n2)CC2CCCCC21` (stereo not drawn): 1 to 10 µM; `CC(=O)N1CCCC(c2nc(Nc3cccc(F)c3)cc(-c3cnccc3C)n2)C1` (stereo not drawn): 1 to 10 µM; `CCC(=O)N1CCCC(c2nc(Nc3cccc(OC)c3)cc(-c3cccnc3)n2)C1` (stereo not drawn): 1 to 10 µM.
Consider `CC(=O)N1CCCC(c2nc(Nc3cccc(F)c3)cc(-c3cncc(N4CCNCC4)c3)n2)C1` (stereo not drawn), for which the EC50 was more than 10 µM.
Take `O=CN1CCCC(c2nc(Nc3cccc(F)c3)cc(-c3cccnc3)n2)C1` (stereo not drawn): the concentration giving a half-maximal response (EC50) was more than 10 µM.
Next, `CC(=O)N1CCCC(c2nc(Nc3nc(C)co3)cc(-c3cccnc3)n2)C1` (stereo not drawn): more than 10 µM; `CC(=O)N1CCCC(c2nc(Nc3cccc(F)c3)cc(-c3cncc(C4COC4)c3)n2)C1` (stereo not drawn): less than 1 µM; `CCC(=O)N1CCCC(c2nc(Nc3ccccc3OC)cc(-c3cccnc3)n2)C1` (stereo not drawn): more than 10 µM.
`CC(=O)N1CC(c2nc(Nc3cccc(F)c3)cc(-c3cccnc3)n2)CCC1c1ccccc1` (stereo not drawn): the 50% effective concentration (EC50) was more than 10 µM.
For the molecule `Fc1cccc(Nc2cc(-c3cccnc3)nc(C3CCCNC3)n2)c1` (stereo not drawn), the EC50 was more than 10 µM.
As to `CCC(=O)N1CCCC(c2nc(Nc3cccc(F)c3)cc(-c3ccc(OC)cc3)n2)C1` (stereo not drawn), the EC50 lay within 1 to 10 µM.

The values above are taken from patent publication US20230067929A1, “HETEROCYCLIC DERIVATIVES, PHARMACEUTICAL COMPOSITIONS AND THEIR USE IN THE TREATMENT, AMELIORATION OR PREVENTION OF CANCER” (Tolremo Therapeutics AG, priority 2018, published 2023).
